Laboratory results published in patent US9040067B2, “Disinfecting and antimicrobial compositions” (priority 2005, dated 2015).

Assays:
[1] = Solubilization of dehydroacetic acid by ethyl lactate; format: physicochemical; settings: 5.0 parts of dehydroacetic acid in 100 ml of ethyl lactate, room temperature
E. coli 0157;H7 = assay: MIC/MLC in brain heart infusion broth; format: cell-based; further: key: + = growth (inactive); − = no growth (active)
Procedure: (§1) The tests were carried out in 10 ml of brain heart infusion broth. The esters were serially diluted in brain heart infusion broth of samples of, 0.1, 0.2, 0.3, 0.4 and 0.5/10 ml and challenged with 0.1 ml of 1/100 dilution of 24 hr old brain heart infusion bacterial culture. The lowest concentration determined the minimum inhibitory concentration (MIC). The samples were observed after 48 hrs at 37° C. A loopful from tubes without growth were plated on BHI agar plates and observed for growth for 24 to 48 hrs at 37° C. The samples with the lowest concentration of the ester without bacterial growth on the plates represented the minimum lethal concentration (MLC).
(§2) A series of samples of (a) methyl lactate, (b) ethyl lactate and (c) butyl lactate, alone, and in admixture with varying amounts of decyl lactate and sodium dodecyl sulfates were used to test minimum inhibitory activity (MIC) by the method described in Example II, against the cultures of E. coli 0157 H7, Listeria monocytogenes, Staphylococcus aureus, Salmonella typhi, and Pseudomonas aeruginosa.

Listeria monocytogenes = assay: MIC/MLC in brain heart infusion broth; format: cell-based
Procedure: as §1, §2

Pseudomonas aeruginosa = assay: MIC/MLC in brain heart infusion broth; format: cell-based; settings: for MIC, Concentration of Lactic Esters 0.5%: 0.5% ester; for MIC, Concentration of Lactic Esters 1%: 1% ester; for MIC, Concentration of Lactic Esters 2%: 2% ester; for MIC, Concentration of Lactic Esters 3%: 3% ester; for MIC, Concentration of Lactic Esters 4%: 4% ester; for MIC, Concentration of Lactic Esters 5%: 5% ester; on MIC, Concentration of Lactic Esters 0.5%: key: + = growth (inactive); − = no growth (active); on MIC, Concentration of Lactic Esters 1%: key: + = growth (inactive); − = no growth (active); on MIC, Concentration of Lactic Esters 2%: key: + = growth (inactive); − = no growth (active); on MIC, Concentration of Lactic Esters 3%: key: + = growth (inactive); − = no growth (active); on MIC, Concentration of Lactic Esters 4%: key: + = growth (inactive); − = no growth (active); on MIC, Concentration of Lactic Esters 5%: key: + = growth (inactive); − = no growth (active)
Procedure: as §1, §2

Staphylococcus aureus = assay: MIC/MLC in brain heart infusion broth; format: cell-based
Procedure: as §1, with “The esters were serially diluted in brain heart infusion broth of samples of, 0.1, 0.2, 0.3, 0.4 and 0.5/10 ml and challenged with 0.1 ml of 1/100 dilution of 24 hr old brain heart infusion bacterial culture.” left out
as §2

Salmonella typhimurium = assay: MIC/MLC in brain heart infusion broth; format: cell-based
Procedure: as §1

Salmonella typhi = assay: MIC in brain heart infusion broth; format: cell-based; settings: Table 4; further: key: + = growth (inactive); − = no growth (active)
Procedure: as §1, §2

Saccharomyces cerevisiae = assay: MIC and MLC against yeast in Sab. broth; format: cell-based; settings: for Lethal (MLC) Concentration 1% / Inhibitory (MIC) Concentration 1%: 1% ester; for Lethal (MLC) Concentration 1.5% / Inhibitory (MIC) Concentration 1.5%: 1.5% ester; for Lethal (MLC) Concentration 2% / Inhibitory (MIC) Concentration 2%: 2% ester; for Lethal (MLC) Concentration 3% / Inhibitory (MIC) Concentration 3%: 3% ester; for Lethal (MLC) Concentration 4% / Inhibitory (MIC) Concentration 4%: 4% ester; on Lethal (MLC) Concentration 1%: key: + = growth (inactive); − = no growth (active); on Lethal (MLC) Concentration 1.5%: key: + = growth (inactive); − = no growth (active); on Lethal (MLC) Concentration 2%: key: + = growth (inactive); − = no growth (active); on Lethal (MLC) Concentration 3%: key: + = growth (inactive); − = no growth (active); on Lethal (MLC) Concentration 4%: key: + = growth (inactive); − = no growth (active)
Procedure: A 0.1 ml of 1/100 dilution of 48 hr old culture of S. cerevisiae was used as inoculum. The test was performed using Sab. broth. The tubes were incubated at room temperature 25° C. The test was read after 48 hrs.

[2] = 1%, second MLC line of organism
[3] = 2%, second MLC line of organism
[4] = 3%, second MLC line of organism
[5] = 4%, second MLC line of organism
[6] = 5%, second MLC line of organism

CC(=O)C1C(=O)C=C(C)OC1=O (centres unmarked) [dehydroacetic acid]
solubility in ethyl lactate (appearance of solution) [1]: clear solution

CCOC(=O)C(C)O (centres unmarked) [Ethyl lactate, ethyl lactate]
MLC, Concentration of Ethyl lactate 0.5% (E. coli 0157;H7; first MLC line of organism): +
MLC, Concentration of Ethyl lactate 0.5% (E. coli 0157;H7; second MLC line of organism): +
MIC, growth at 1% (E. coli 0157;H7; 1%, Table 4): +
MLC, Concentration of Ethyl lactate 1% (E. coli 0157;H7; 1%, first MLC line of organism): +
MLC, Concentration of Ethyl lactate 1% (E. coli 0157;H7; [2]): +
MIC, growth at 2% (E. coli 0157;H7; 2%, Table 4): +
MLC, Concentration of Ethyl lactate 2% (E. coli 0157;H7; 2%, first MLC line of organism): −
MLC, Concentration of Ethyl lactate 2% (E. coli 0157;H7; [3]): +
MIC, growth at 3% (E. coli 0157;H7; 3%, Table 4): +
MLC, Concentration of Ethyl lactate 3% (E. coli 0157;H7; 3%, first MLC line of organism): −
MLC, Concentration of Ethyl lactate 3% (E. coli 0157;H7; [4]): −
MIC, growth at 4% (E. coli 0157;H7; 4%, Table 4): −
MLC, Concentration of Ethyl lactate 4% (E. coli 0157;H7; 4%, first MLC line of organism): −
MLC, Concentration of Ethyl lactate 4% (E. coli 0157;H7; [5]): −
MIC, growth at 5% (E. coli 0157;H7; 5%, Table 4): −
MLC, Concentration of Ethyl lactate 5% (E. coli 0157;H7; 5%, first MLC line of organism): −
MLC, Concentration of Ethyl lactate 5% (E. coli 0157;H7; [6]): −
MLC, Concentration of Ethyl lactate 0.5% (Listeria monocytogenes; first MLC line of organism): +
MLC, Concentration of Ethyl lactate 0.5% (Listeria monocytogenes; second MLC line of organism): +
MIC, growth at 1% (Listeria monocytogenes; 1%, Table 4): +
MLC, Concentration of Ethyl lactate 1% (Listeria monocytogenes; 1%, first MLC line of organism): +
MLC, Concentration of Ethyl lactate 1% (Listeria monocytogenes; [2]): +
MIC, growth at 2% (Listeria monocytogenes; 2%, Table 4): +
MLC, Concentration of Ethyl lactate 2% (Listeria monocytogenes; 2%, first MLC line of organism): +
MLC, Concentration of Ethyl lactate 2% (Listeria monocytogenes; [3]): +
MIC, growth at 3% (Listeria monocytogenes; 3%, Table 4): +
MLC, Concentration of Ethyl lactate 3% (Listeria monocytogenes; 3%, first MLC line of organism): +
MLC, Concentration of Ethyl lactate 3% (Listeria monocytogenes; [4]): +
MIC, growth at 4% (Listeria monocytogenes; 4%, Table 4): +
MLC, Concentration of Ethyl lactate 4% (Listeria monocytogenes; 4%, first MLC line of organism): +
MLC, Concentration of Ethyl lactate 4% (Listeria monocytogenes; [5]): +
MIC, growth at 5% (Listeria monocytogenes; 5%, Table 4): +
MLC, Concentration of Ethyl lactate 5% (Listeria monocytogenes; 5%, first MLC line of organism): +
MLC, Concentration of Ethyl lactate 5% (Listeria monocytogenes; [6]): +
MIC, Concentration of Lactic Esters 0.5% (Pseudomonas aeruginosa; SDS 0.0 ppm): +
MIC, Concentration of Lactic Esters 0.5% (Pseudomonas aeruginosa; SDS 50 ppm): −
MIC, Concentration of Lactic Esters 0.5% (Pseudomonas aeruginosa; SDS 100 ppm): −
MIC, Concentration of Lactic Esters 0.5% (Pseudomonas aeruginosa; SDS 200 ppm): −
MLC, Concentration of Ethyl lactate 0.5% (Pseudomonas aeruginosa; first MLC line of organism): +
MLC, Concentration of Ethyl lactate 0.5% (Pseudomonas aeruginosa; second MLC line of organism): +
MIC, Concentration of Lactic Esters 1% (Pseudomonas aeruginosa; SDS 0.0 ppm): +
MIC, Concentration of Lactic Esters 1% (Pseudomonas aeruginosa; SDS 50 ppm): −
MIC, Concentration of Lactic Esters 1% (Pseudomonas aeruginosa; SDS 100 ppm): −
MIC, Concentration of Lactic Esters 1% (Pseudomonas aeruginosa; SDS 200 ppm): −
MLC, Concentration of Ethyl lactate 1% (Pseudomonas aeruginosa; first MLC line of organism): +
MLC, Concentration of Ethyl lactate 1% (Pseudomonas aeruginosa; second MLC line of organism): +
MIC, Concentration of Lactic Esters 2% (Pseudomonas aeruginosa; SDS 0.0 ppm): −
MIC, Concentration of Lactic Esters 2% (Pseudomonas aeruginosa; SDS 50 ppm): −
MIC, Concentration of Lactic Esters 2% (Pseudomonas aeruginosa; SDS 100 ppm): −
MIC, Concentration of Lactic Esters 2% (Pseudomonas aeruginosa; SDS 200 ppm): −
MLC, Concentration of Ethyl lactate 2% (Pseudomonas aeruginosa; first MLC line of organism): −
MLC, Concentration of Ethyl lactate 2% (Pseudomonas aeruginosa; second MLC line of organism): +
MIC, Concentration of Lactic Esters 3% (Pseudomonas aeruginosa; SDS 0.0 ppm): −
MIC, Concentration of Lactic Esters 3% (Pseudomonas aeruginosa; SDS 50 ppm): −
MIC, Concentration of Lactic Esters 3% (Pseudomonas aeruginosa; SDS 100 ppm): −
MIC, Concentration of Lactic Esters 3% (Pseudomonas aeruginosa; SDS 200 ppm): −
MLC, Concentration of Ethyl lactate 3% (Pseudomonas aeruginosa; first MLC line of organism): −
MLC, Concentration of Ethyl lactate 3% (Pseudomonas aeruginosa; second MLC line of organism): +
MIC, Concentration of Lactic Esters 4% (Pseudomonas aeruginosa; SDS 0.0 ppm): −
MIC, Concentration of Lactic Esters 4% (Pseudomonas aeruginosa; SDS 50 ppm): −
MIC, Concentration of Lactic Esters 4% (Pseudomonas aeruginosa; SDS 100 ppm): −
MIC, Concentration of Lactic Esters 4% (Pseudomonas aeruginosa; SDS 200 ppm): −
MLC, Concentration of Ethyl lactate 4% (Pseudomonas aeruginosa; first MLC line of organism): −
MLC, Concentration of Ethyl lactate 4% (Pseudomonas aeruginosa; second MLC line of organism): −
MIC, Concentration of Lactic Esters 5% (Pseudomonas aeruginosa; SDS 0.0 ppm): −
MIC, Concentration of Lactic Esters 5% (Pseudomonas aeruginosa; SDS 50 ppm): −
MIC, Concentration of Lactic Esters 5% (Pseudomonas aeruginosa; SDS 100 ppm): −
MIC, Concentration of Lactic Esters 5% (Pseudomonas aeruginosa; SDS 200 ppm): −
MLC, Concentration of Ethyl lactate 5% (Pseudomonas aeruginosa; first MLC line of organism): −
MLC, Concentration of Ethyl lactate 5% (Pseudomonas aeruginosa; second MLC line of organism): −
MLC, Concentration of Ethyl lactate 0.5% (Staphylococcus aureus; first MLC line of organism): +
MLC, Concentration of Ethyl lactate 0.5% (Staphylococcus aureus; second MLC line of organism): +
MIC, growth at 1% (Staphylococcus aureus; 1%, Table 4): +
MLC, Concentration of Ethyl lactate 1% (Staphylococcus aureus; 1%, first MLC line of organism): +
MLC, Concentration of Ethyl lactate 1% (Staphylococcus aureus; [2]): +
MIC, growth at 2% (Staphylococcus aureus; 2%, Table 4): +
MLC, Concentration of Ethyl lactate 2% (Staphylococcus aureus; 2%, first MLC line of organism): +
MLC, Concentration of Ethyl lactate 2% (Staphylococcus aureus; [3]): +
MIC, growth at 3% (Staphylococcus aureus; 3%, Table 4): +
MLC, Concentration of Ethyl lactate 3% (Staphylococcus aureus; 3%, first MLC line of organism): +
MLC, Concentration of Ethyl lactate 3% (Staphylococcus aureus; [4]): +
MIC, growth at 4% (Staphylococcus aureus; 4%, Table 4): +
MLC, Concentration of Ethyl lactate 4% (Staphylococcus aureus; 4%, first MLC line of organism): +
MLC, Concentration of Ethyl lactate 4% (Staphylococcus aureus; [5]): +
MIC, growth at 5% (Staphylococcus aureus; 5%, Table 4): +
MLC, Concentration of Ethyl lactate 5% (Staphylococcus aureus; 5%, first MLC line of organism): −
MLC, Concentration of Ethyl lactate 5% (Staphylococcus aureus; [6]): +
MLC, Concentration of Ethyl lactate 0.5% (Salmonella typhimurium; first MLC line of organism): +
MLC, Concentration of Ethyl lactate 0.5% (Salmonella typhimurium; second MLC line of organism): +
MLC, Concentration of Ethyl lactate 1% (Salmonella typhimurium; first MLC line of organism): +
MLC, Concentration of Ethyl lactate 1% (Salmonella typhimurium; second MLC line of organism): +
MLC, Concentration of Ethyl lactate 2% (Salmonella typhimurium; first MLC line of organism): +
MLC, Concentration of Ethyl lactate 2% (Salmonella typhimurium; second MLC line of organism): +
MLC, Concentration of Ethyl lactate 3% (Salmonella typhimurium; first MLC line of organism): +
MLC, Concentration of Ethyl lactate 3% (Salmonella typhimurium; second MLC line of organism): +
MLC, Concentration of Ethyl lactate 4% (Salmonella typhimurium; first MLC line of organism): −
MLC, Concentration of Ethyl lactate 4% (Salmonella typhimurium; second MLC line of organism): +
MLC, Concentration of Ethyl lactate 5% (Salmonella typhimurium; first MLC line of organism): −
MLC, Concentration of Ethyl lactate 5% (Salmonella typhimurium; second MLC line of organism): +
MIC, growth at 1% (Salmonella typhi; 1%): +
MIC, growth at 2% (Salmonella typhi; 2%): +
MIC, growth at 3% (Salmonella typhi; 3%): +
MIC, growth at 4% (Salmonella typhi; 4%): −
MIC, growth at 5% (Salmonella typhi; 5%): −
Lethal (MLC) Concentration 1% (Saccharomyces cerevisiae): +
Inhibitory (MIC) Concentration 1% (Saccharomyces cerevisiae; 48 hrs, 25° C): +
Inhibitory (MIC) Concentration 1% (Saccharomyces cerevisiae; Sodium lauryl sulfate 200 ppm): +
Lethal (MLC) Concentration 1% (Saccharomyces cerevisiae; Sodium lauryl sulfate 200 ppm): +
Lethal (MLC) Concentration 1.5% (Saccharomyces cerevisiae): +
Inhibitory (MIC) Concentration 1.5% (Saccharomyces cerevisiae; 48 hrs, 25° C): −
Inhibitory (MIC) Concentration 1.5% (Saccharomyces cerevisiae; Sodium lauryl sulfate 200 ppm): −
Lethal (MLC) Concentration 1.5% (Saccharomyces cerevisiae; Sodium lauryl sulfate 200 ppm): +
Lethal (MLC) Concentration 2% (Saccharomyces cerevisiae): −
Inhibitory (MIC) Concentration 2% (Saccharomyces cerevisiae; 48 hrs, 25° C): −
Inhibitory (MIC) Concentration 2% (Saccharomyces cerevisiae; Sodium lauryl sulfate 200 ppm): −
Lethal (MLC) Concentration 2% (Saccharomyces cerevisiae; Sodium lauryl sulfate 200 ppm): −
Lethal (MLC) Concentration 3% (Saccharomyces cerevisiae): −
Inhibitory (MIC) Concentration 3% (Saccharomyces cerevisiae; 48 hrs, 25° C): −
Inhibitory (MIC) Concentration 3% (Saccharomyces cerevisiae; Sodium lauryl sulfate 200 ppm): −
Lethal (MLC) Concentration 3% (Saccharomyces cerevisiae; Sodium lauryl sulfate 200 ppm): −
Lethal (MLC) Concentration 4% (Saccharomyces cerevisiae): −
Inhibitory (MIC) Concentration 4% (Saccharomyces cerevisiae; 48 hrs, 25° C): −
Inhibitory (MIC) Concentration 4% (Saccharomyces cerevisiae; Sodium lauryl sulfate 200 ppm): −
Lethal (MLC) Concentration 4% (Saccharomyces cerevisiae; Sodium lauryl sulfate 200 ppm): −
